The source of these data is PubChem BioAssay (NCI).

SMILES strings stand for the structures. “And” between values parts separate entries of the source, which are not always exact repeats. Equal values may be shown once.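 1) Cells in 96-well plates. 2) Compound, 48 h, 5 concentrations. 3) Linear interpolation between surrounding doses. 4) Unreached endpoint = highest concentration. GI50 marks 50% less growth. TGI: concentration producing complete growth inhibition.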 *1 amine or outer side, *2 acyl side, *3 side chain or, on linkers, in order; H or OH if unused. Where a SMILES comes first, the peptide text is derived from it. The star is where a group is joined. γGlu = O=C(O)[CH](CCC(=O)[*:2])N[*:1]; Cbz = O=C(OCc1ccccc1)*; NHOH = ON* A value given as a limit tells only on which side of the number the result lay.

Common to all, as to experiment: inhibition of tumour cell growth, NCI panel, 48 h
The test system of experiment [1] is 786-0 renal.
Experiment [2] has as its system ACHN renal.
The test system of experiment [3] is CAKI-1 renal.
The test system of experiment [4] is DU-145 prostate.
For experiment [5], the system named is MDA-N.
The test system of experiment [6] is NCI-H460 lung.
In experiment [7] the test system is RXF 393 renal.
Experiment [8] has as its system SF-295 CNS.
The subject of experiment [9] is SK-MEL-28 melanoma.
Experiment [10] has as its system SR leukemia.
The test system of experiment [11] is RPMI-8226 leukemia.

Turning to `COP(=O)(OC)[C@@](O)(c1ccccc1)[C@@H](O)[C@H](O)c1ccccc1`, the TGI in experiment [1], in [2], in experiment [3], in [4], in experiment [5] and in [6] was more than 100 µM in each case. The TGI in [7], in [8], in [9] and in experiment [10] was more than 100 µM each time.
As for `C#CCOC(=O)C=[N+]=[N-]`, the TGI in [1], in experiment [2], in experiment [4], in experiment [5], in experiment [6] and in experiment [11] was more than 10 µM throughout. Also, the TGI in experiment [7], in experiment [8], in experiment [9] and in [10] was more than 10 µM each time.
Consider `Cc1ccc(N=NC(=Nc2ccc(F)cc2)c2ccc(N(CCC#N)CCC#N)cc2)cc1`, for which the TGI in [1], in experiment [2], in experiment [3], in [4], in experiment [5] and in [6] was more than 100 µM each time. The TGI in experiment [11], in [7], in experiment [8], in [9] and in experiment [10] was more than 100 µM each time.
Regarding `CSC(=Nc1ccccc1)c1c(C)[nH]n(-c2ccccc2)c1=O`, the TGI in experiment [1], in experiment [3], in [4], in [5], in experiment [6] and in experiment [11] was more than 100 µM each time. Moreover, the TGI in experiment [7], in [9] and in [10] was more than 100 µM throughout.
`CCOC(=O)c1nc2ccccc2nc1Nc1cc(OC)c(OC)c(OC)c1`: the TGI in [1], in experiment [2], in [3], in experiment [4], in experiment [5] and in experiment [6] was more than 100 µM each time. The TGI in [11], in experiment [8], in experiment [9] and in experiment [10] was more than 100 µM in each case.
`CC1=C[C@H](C[C@]2(C)c3c(c4c(C)cccc4oc3=O)O[C@@H]2C)OC1=O`: the TGI in experiment [1] is 50 µM; in experiment [2], more than 100 µM; in [3], more than 100 µM; in experiment [4], more than 100 µM; in [5], more than 100 µM; in experiment [6] it was more than 100 µM. Further, the TGI in [11] is 18.1 µM; in experiment [8], more than 100 µM; in experiment [10], 61.3 µM.
Regarding `C[C@]12C(=O)OC[C@H](c3ccccc3)N1C(=O)N(Cc1ccccc1)[C@@H]2CO`, the TGI in [1], in experiment [2], in experiment [3], in experiment [4], in experiment [5] and in experiment [6] was more than 100 µM in each case. Further, the TGI in experiment [7], in experiment [8], in experiment [9] and in [10] was more than 100 µM each time.
As for `C/C(=N/NC(=S)N1CCCCCC1)c1cccc(/C(C)=N\NC(=S)N2CCCCCC2)n1`, the TGI was determined as 2.63 µM in [1]; 2.87 µM in [2]; 6.04 µM in experiment [4]; 4.9 µM in experiment [5]; 6.78 µM in [6]; 5.33 µM in experiment [11]. For the same compound, the TGI in [7] stood at 3.69 µM; in [8], 4.12 µM; in experiment [9], 6 µM; in experiment [10], 5.84 µM.
Take `Cc1cc2c3c(c1)S(=O)(=O)c1cc(Cl)ccc1N3CCC2`: the TGI in [1], in experiment [2], in [3], in experiment [4], in experiment [5] and in experiment [6] was more than 100 µM each time. The TGI in [7], in experiment [8], in [9] and in experiment [10] was more than 100 µM throughout.
In the case of `CCOC(=O)CCC(NC(=O)C(CC(=O)OC)NC(=O)OCc1ccccc1)C(=O)NC(CC(=O)OC)C(=O)NC(CCC(=O)OCC)C(=O)NC(CC(=O)OC)C(=O)NC(CCC(=O)OCC)C(=O)NC(CC(=O)OCC)C(=O)OCC` (stereo not drawn) (Cbz-D(OMe)E(OEt)D(OMe)E(OEt)D(OMe)E(OEt)D(OEt)-OEt; configuration not given here), the TGI in [1], in [2], in experiment [4], in [5], in experiment [6] and in [11] was more than 100 µM in each case. The compound also displayed a TGI in experiment [10] of more than 100 µM.
Turning to `CCO/C(O)=c1/s/c(=C2/SC(=S)N(c3ccc(C)cc3)C2=O)n(-c2ccccc2)c1=N`, the TGI is 77.4 µM in experiment [1]; more than 100 µM in [2]; more than 100 µM in experiment [4]; more than 100 µM in experiment [5]; more than 100 µM in [6]; more than 100 µM in experiment [11]. Moreover, the values for the TGI in [8], in experiment [9] and in experiment [10] were 59.7 µM, more than 76.5 µM and more than 100 µM, respectively.
For the compound `CCN(CC)P(=O)(c1ccc2c(c1)OCCOCCOCCOCCO2)N(CC)CC`, the TGI in experiment [1], in [2], in experiment [3], in experiment [4], in experiment [5] and in experiment [6] was more than 100 µM throughout. Moreover, the TGI in experiment [11], in experiment [8], in [9] and in experiment [10] was more than 100 µM in each case.
Turning to `Fc1ccc(/C=C2\COCC3=C2NC(=S)NC3c2ccc(F)cc2)cc1` (stereo not drawn), the TGI in experiment [1] was 34.4 µM; in [2], more than 100 µM; in experiment [3] it was 76.2 µM; in experiment [4], 77.3 µM; in [5], 34.2 µM; in experiment [6] it was 36 µM. In addition, the TGI in experiment [11] was 44.4 µM; in experiment [7], 30.4 µM; in [8], 33.3 µM; in [10], 45 µM.
Regarding `c1ccc(C/C(=N\Nc2nc3ccccc3[nH]2)c2ccccn2)cc1`, the TGI turned out to be 5.7 µM in experiment [1]; 3.06 µM in experiment [2]; 1.52 µM in experiment [3]; 27.7 µM in experiment [4]; 12.8 µM in experiment [5]; 11.3 µM in experiment [6]. Further, the TGI in [11] is 0.131 µM; in [7], 1.58 µM; in [8], 6.78 µM; in experiment [9], 11 µM.
As to `O=S(=O)(O)c1cc(O)c(N=NC2S(=O)(=O)OCCOS2(=O)=O)c2ccccc12`, the TGI in [1], in experiment [2], in [3], in [4], in experiment [5] and in [6] was more than 100 µM throughout. Further, the TGI in experiment [11], in [7], in experiment [8] and in experiment [9] was more than 100 µM in each case.
Regarding `CC(C)(C)OC(=O)C1C(=O)NC(=O)CC1C(OCc1ccccc1)C(OCc1ccccc1)C(COCc1ccccc1)OCc1ccccc1` (stereo not drawn), the TGI in experiment [1], in [2], in experiment [4], in [5], in experiment [6] and in [11] was more than 100 µM each time. Further, the TGI in [7], in experiment [8], in [9] and in experiment [10] was more than 100 µM each time. The GI50 was > 100 µM and 37.3 µM in experiment [6]; 78.7 µM and 23 µM in [11]; 33.2 µM and 14.4 µM in experiment [7]; > 100 µM and 35.1 µM in experiment [10].
Take `COC(=O)C12CCCN1CCC2`: the TGI in experiment [1], in experiment [2], in experiment [3], in experiment [4], in experiment [5] and in experiment [6] was more than 100 µM each time. The TGI in experiment [7], in experiment [8], in [9] and in experiment [10] was more than 100 µM throughout.
Turning to `OC1C2CN3CCN(C2)CC1(c1ccccc1)C3` (stereo not drawn), the TGI in experiment [1], in experiment [2], in experiment [3], in experiment [4], in experiment [5] and in experiment [11] was more than 100 µM in each case. Besides, the TGI in experiment [7], in [8], in experiment [9] and in experiment [10] was more than 100 µM each time.
Consider `CN(C(=O)Cc1cc(Cl)c(Cl)cc1NC(=O)CCCN)[C@H]1CCCC[C@@H]1N1CCCC1`, for which the TGI in experiment [1] is 36.2 µM; in experiment [2], more than 100 µM; in experiment [3], more than 100 µM; in [4], more than 100 µM; in experiment [5] it was 30.7 µM; in experiment [11], more than 100 µM. In addition, the TGI in experiment [7] was 48.7 µM; in experiment [8], more than 100 µM; in [9], 33 µM; in [10] it was more than 100 µM.
With `Cc1ccc(S(=O)(=O)N(CC(O)COc2ccccc2)c2c(F)c(F)c(F)c(F)c2F)cc1` (stereo not drawn), the TGI was determined as 38.8 µM in experiment [1]; 32 µM in [2]; 26.7 µM in [3]; 72.9 µM in [4]; 32.7 µM in experiment [5]; 30.3 µM in experiment [6]. In addition, the TGI in experiment [11] is 12.7 µM; in experiment [8], 37.4 µM; in experiment [9], 31.6 µM; in experiment [10], 47.7 µM.
As for `CC(Nc1cccc(Cl)c1)c1ccncc1` (stereo not drawn), the TGI in experiment [1], in [2], in experiment [3], in experiment [4], in [5] and in experiment [6] was more than 100 µM throughout. The TGI in experiment [11], in experiment [7], in experiment [8] and in [9] was more than 100 µM each time.
`COc1cc(OC)c(-n2[nH]c(=O)n(C)c2=O)c(OC)c1`: the TGI in experiment [1], in [3], in experiment [4], in [5], in [6] and in experiment [11] was more than 100 µM each time. Further, the TGI in [7], in experiment [9] and in [10] was more than 100 µM throughout.
`NC(CCC(=O)NC(CCC(=O)NO)C(=O)NCC(=O)O)C(=O)O` (stereo not drawn) (γGlu-Glu(NHOH)-Gly-OH; configuration not given here): the TGI in [1], in experiment [2], in experiment [3], in experiment [4], in [5] and in [6] was more than 100 µM throughout. The TGI in experiment [11], in [7], in experiment [8] and in experiment [9] was more than 100 µM each time.
As to `O=C(Nc1ccc(Cl)cc1)c1cc(S(=O)(=O)Nc2nc3ncccc3[nH]2)c(SSc2cc(Cl)c(C(=O)Nc3ccc(Cl)cc3)cc2S(=O)(=O)Nc2nc3ncccc3[nH]2)cc1Cl`, the TGI in [1], in experiment [2], in experiment [3], in [4], in experiment [5] and in experiment [6] was more than 100 µM throughout. The TGI in [11], in experiment [7], in experiment [8] and in [9] was more than 100 µM each time.
In the case of `CCCSc1ccc2[nH]c(N3C(=O)/C(=C/c4ccc(O)c(OC)c4)N=C3c3ccccc3)cc2c1`, the TGI in experiment [1] is more than 100 µM; in experiment [2], more than 100 µM; in [3], more than 100 µM; in experiment [4], more than 100 µM; in [5] it was 5.26 µM; in [6] it was 10.1 µM. For the same compound, the TGI in experiment [11] was 34.3 µM; in [7], more than 100 µM; in experiment [9], more than 100 µM; in experiment [10], more than 100 µM.
As for `COc1cc(O)c2c(=O)c3cccc(C)c3[nH]c2c1`, the TGI in experiment [1], in experiment [2], in experiment [3], in experiment [4], in experiment [5] and in experiment [6] was more than 10 µM throughout. Further, the TGI in experiment [11], in experiment [7], in experiment [8] and in [9] was more than 10 µM each time.
